Measured values: patent US20260022142A1, “MACROCYCLIC IMMUNOMODULATORS” (Bristol-Myers Squibb Company, priority 2022, published 2026)
pIC50: −log10 of the molar value. Bridge positions count the residues as written; N and C are the ends. Square brackets hold non-standard residues; d marks the D form. Peptide text beside a SMILES is read from it. * marks the point of attachment. Phe(4-CONH2) = NC(=O)c1ccc(C[C@H](N)C(=O)O)cc1; Phe(4-COOH) = N[C@@H](Cc1ccc(C(=O)O)cc1)C(=O)O; Bip = N[C@@H](Cc1ccc(-c2ccccc2)cc1)C(=O)O; Phe(3-Me) = Cc1cccc(C[C@H](N)C(=O)O)c1; NH(CH2)12COOH = O=C(O)CCCCCCCCCCCCN*; Val(3-OH) = CC(C)(O)[C@H](N)C(=O)O; 4Pal = N[C@@H](Cc1ccncc1)C(=O)O; Cha = N[C@@H](CC1CCCCC1)C(=O)O; Carboxymethyl = O=C(O)C*; Orn = NCCC[C@H](N)C(=O)O; Aun = NCCCCCCCCCCC(=O)O; Dab = NCC[C@H](N)C(=O)O; AEEA = NCCOCCOCC(=O)O

Target: T1, PD-1/PD-L1 interaction (PE-labeled human PD-L1-Ig binding to Jurkat cell line over-expressing human PD-1) (Homo sapiens, UniProt Q15116)
T1 construct: expressed in transfected cells; host or cells: Jurkat
T1 sequence (Q15116 25-288): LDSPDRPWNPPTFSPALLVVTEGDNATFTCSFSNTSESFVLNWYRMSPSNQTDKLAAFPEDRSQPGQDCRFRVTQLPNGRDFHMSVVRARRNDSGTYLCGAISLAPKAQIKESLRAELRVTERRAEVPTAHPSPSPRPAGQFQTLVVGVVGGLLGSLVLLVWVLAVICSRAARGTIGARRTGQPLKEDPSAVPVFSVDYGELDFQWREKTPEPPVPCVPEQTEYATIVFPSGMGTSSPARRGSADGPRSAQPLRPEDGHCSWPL
Assay: Jurkat-PD-1 Cell Binding High-Content Screening Assay (CBA)
Assay type: cell-based
Conditions: Jurkat cell line over-expressing human PD-1; PE-labeled PD-L1-Ig 20 nM final; read-out: Jurkat hPD1-PDL1 IC50
Procedure, shortened: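 Human PD-L1-Ig carrying a covalent PE label on its Ig tag serves as the probe, applied at 20 nM final to compound-treated (2 h, 37° C) Jurkat-hPD-1 cells in medium with 10% fetal calf serum. After one hour, fixation and nuclear staining precede high-content image analysis.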

SMILES	pIC50
Cc1cccc(C[C@@H]2NC(=O)[C@H](CC(=O)O)NC(=O)[C@H](Cc3ccc(OCC(=O)O)cc3)NC(=O)[C@H](Cc3ccncc3)NC(=O)CSC[C@@H](C(=O)N[C@@H](CCN)C(=O)NCCOCCOCC(=O)NCCOCCOCC(=O)NCCCCCCCCCCC(=O)O)NC(=O)[C@H](CCC(=O)O)NC(=O)[C@H](C(C)(C)O)NC(=O)[C@H](CC3CCCCC3)NC(=O)[C@H](CCN)NC(=O)[C@@H](CC(C)C)NC(=O)[C@H](CCCN)NC(=O)[C@H](Cc3ccc(C(=O)O)cc3)NC(=O)[C@H](Cc3ccc(-c4ccccc4)cc3)NC(=O)[C@H](Cc3ccc(C(=O)O)cc3)NC2=O)c1 [Compound 3741] ({CH2CO}-[4Pal]Y(Carboxymethyl)D[Phe(3-Me)][Phe(4-COOH)][Bip][Phe(4-COOH)][Orn][dL][Dab][Cha][Val(3-OH)]EC[Dab][AEEA][AEEA][Aun]-OH; thioether N-14)	8.06
Cc1cccc(C[C@@H]2NC(=O)[C@H](CC(=O)O)NC(=O)[C@H](Cc3ccc(OCC(=O)O)cc3)NC(=O)[C@H](Cc3ccncc3)NC(=O)CSC[C@@H](C(=O)N[C@@H](CCN)C(=O)NCCOCCOCC(=O)NCCOCCOCC(=O)NCCCCCCCCCCC(=O)O)NC(=O)[C@H](Cc3cnc[nH]3)NC(=O)[C@H](C(C)(C)O)NC(=O)[C@H](CC3CCCCC3)NC(=O)[C@H](CCN)NC(=O)[C@@H](CC(C)C)NC(=O)[C@H](CCCN)NC(=O)[C@H](Cc3ccc(C(=O)O)cc3)NC(=O)[C@H](Cc3ccc(-c4ccccc4)cc3)NC(=O)[C@H](Cc3ccc(C(=O)O)cc3)NC2=O)c1 [Compound 3742] ({CH2CO}-[4Pal]Y(Carboxymethyl)D[Phe(3-Me)][Phe(4-COOH)][Bip][Phe(4-COOH)][Orn][dL][Dab][Cha][Val(3-OH)]HC[Dab][AEEA][AEEA][Aun]-OH; thioether N-14)	8.77
Cc1cccc(C[C@@H]2NC(=O)[C@H](CC(=O)O)NC(=O)[C@H](Cc3ccc(C(=O)O)cc3)NC(=O)[C@H](C(C)C)NC(=O)CSC[C@@H](C(=O)N[C@@H](CCN)C(=O)NCCOCCOCC(=O)NCCCCCCCCCCC(=O)O)NC(=O)[C@H](CO)NC(=O)[C@H](C(C)(C)O)NC(=O)[C@H](CC3CCCCC3)NC(=O)[C@H](CCN)NC(=O)[C@@H](CC(C)C)NC(=O)[C@H](CCCN)NC(=O)[C@H](Cc3ccc(OCC(=O)O)cc3)NC(=O)[C@H](Cc3ccc(-c4ccccc4)cc3)NC(=O)[C@H](Cc3ccc(OCC(=O)O)cc3)NC2=O)c1 [Compound 3743] ({CH2CO}-V[Phe(4-COOH)]D[Phe(3-Me)]Y(Carboxymethyl)[Bip]Y(Carboxymethyl)[Orn][dL][Dab][Cha][Val(3-OH)]SC[Dab][AEEA][Aun]-OH; thioether N-14)	8.32
Cc1cccc(C[C@@H]2NC(=O)[C@H](CC(=O)O)NC(=O)[C@H](Cc3ccc(OCC(=O)O)cc3)NC(=O)[C@H](Cc3ccncc3)NC(=O)CSC[C@@H](C(=O)N[C@@H](CCN)C(=O)NCCOCCOCC(=O)NCCCCCCCCCCC(=O)O)NC(=O)[C@H](CCC(=O)O)NC(=O)[C@H](C(C)(C)O)NC(=O)[C@H](CC3CCCCC3)NC(=O)[C@H](CCN)NC(=O)[C@@H](CC(C)C)NC(=O)[C@H](CCCN)NC(=O)[C@H](Cc3ccc(C(=O)O)cc3)NC(=O)[C@H](Cc3ccc(-c4ccccc4)cc3)NC(=O)[C@H](Cc3ccc(C(=O)O)cc3)NC2=O)c1 [Compound 3744] ({CH2CO}-[4Pal]Y(Carboxymethyl)D[Phe(3-Me)][Phe(4-COOH)][Bip][Phe(4-COOH)][Orn][dL][Dab][Cha][Val(3-OH)]EC[Dab][AEEA][Aun]-OH; thioether N-14)	7.78
Cc1cccc(C[C@@H]2NC(=O)[C@H](CC(=O)O)NC(=O)[C@H](Cc3ccc(OCC(=O)O)cc3)NC(=O)[C@H](Cc3ccncc3)NC(=O)CSC[C@@H](C(=O)N[C@@H](CCN)C(=O)NCCOCCOCC(=O)NCCCCCCCCCCC(=O)O)NC(=O)[C@H](CCC(=O)O)NC(=O)[C@H](C(C)(C)O)NC(=O)[C@H](CC3CCCCC3)NC(=O)[C@H](CCN)NC(=O)[C@@H](CC(C)C)NC(=O)[C@H](CCC(N)=O)NC(=O)[C@H](Cc3ccc(OCC(=O)O)cc3)NC(=O)[C@H](Cc3ccc(-c4ccccc4)cc3)NC(=O)[C@H](Cc3ccc(OCC(=O)O)cc3)NC2=O)c1 [Compound 3746] ({CH2CO}-[4Pal]Y(Carboxymethyl)D[Phe(3-Me)]Y(Carboxymethyl)[Bip]Y(Carboxymethyl)Q[dL][Dab][Cha][Val(3-OH)]EC[Dab][AEEA][Aun]-OH; thioether N-14)	8.17
Cc1cccc(C[C@@H]2NC(=O)[C@H](CC(=O)O)NC(=O)[C@H](Cc3ccc(OCC(=O)O)cc3)NC(=O)[C@H](Cc3ccncc3)NC(=O)CSC[C@@H](C(=O)N[C@@H](CCN)C(=O)NCCOCCOCC(=O)NCCCCCCCCCCC(=O)O)NC(=O)[C@H](CO)NC(=O)[C@H](C(C)(C)O)NC(=O)[C@H](CC3CCCCC3)NC(=O)[C@H](CCN)NC(=O)[C@@H](CC(C)C)NC(=O)[C@H](CCC(N)=O)NC(=O)[C@H](Cc3ccc(C(=O)O)cc3)NC(=O)[C@H](Cc3ccc(-c4ccccc4)cc3)NC(=O)[C@H](Cc3ccc(C(=O)O)cc3)NC2=O)c1 [Compound 3747] ({CH2CO}-[4Pal]Y(Carboxymethyl)D[Phe(3-Me)][Phe(4-COOH)][Bip][Phe(4-COOH)]Q[dL][Dab][Cha][Val(3-OH)]SC[Dab][AEEA][Aun]-OH; thioether N-14)	7.92
Cc1cccc(C[C@@H]2NC(=O)[C@H](CC(=O)O)NC(=O)[C@H](Cc3ccc(OCC(=O)O)cc3)NC(=O)[C@H](Cc3ccncc3)NC(=O)CSC[C@@H](C(=O)N[C@@H](CCN)C(=O)NCCOCCOCC(=O)NCCCCCCCCCCC(=O)O)NC(=O)[C@H](CCC(=O)O)NC(=O)[C@H](C(C)(C)O)NC(=O)[C@H](CC3CCCCC3)NC(=O)[C@H](CCN)NC(=O)[C@@H](CC(C)C)NC(=O)[C@H](CCC(N)=O)NC(=O)[C@H](Cc3ccc(C(=O)O)cc3)NC(=O)[C@H](Cc3ccc(-c4ccccc4)cc3)NC(=O)[C@H](Cc3ccc(C(=O)O)cc3)NC2=O)c1 [Compound 3748] ({CH2CO}-[4Pal]Y(Carboxymethyl)D[Phe(3-Me)][Phe(4-COOH)][Bip][Phe(4-COOH)]Q[dL][Dab][Cha][Val(3-OH)]EC[Dab][AEEA][Aun]-OH; thioether N-14)	7.98
Cc1cccc(C[C@@H]2NC(=O)[C@H](CC(=O)O)NC(=O)[C@H](Cc3ccc(C(=O)O)cc3)NC(=O)[C@H](Cc3ccncc3)NC(=O)CSC[C@@H](C(=O)N[C@@H](CCN)C(=O)NCCOCCOCC(=O)NCCCCCCCCCCC(=O)O)NC(=O)[C@H](CO)NC(=O)[C@H](C(C)(C)O)NC(=O)[C@H](CC3CCCCC3)NC(=O)[C@H](Cc3cnc[nH]3)NC(=O)[C@@H](CC(C)C)NC(=O)[C@H](CCC(N)=O)NC(=O)[C@H](Cc3ccc(OCC(=O)O)cc3)NC(=O)[C@H](Cc3ccc(-c4ccccc4)cc3)NC(=O)[C@H](Cc3ccc(OCC(=O)O)cc3)NC2=O)c1 [Compound 3749] ({CH2CO}-[4Pal][Phe(4-COOH)]D[Phe(3-Me)]Y(Carboxymethyl)[Bip]Y(Carboxymethyl)Q[dL]H[Cha][Val(3-OH)]SC[Dab][AEEA][Aun]-OH; thioether N-14)	7.25
Cc1cccc(C[C@@H]2NC(=O)[C@H](CC(=O)O)NC(=O)[C@H](Cc3ccc(C(N)=O)cc3)NC(=O)[C@H](Cc3ccncc3)NC(=O)CSC[C@@H](C(=O)N[C@@H](CCN)C(=O)NCCOCCOCC(=O)NCCCCCCCCCCC(=O)O)NC(=O)[C@H](CO)NC(=O)[C@H](C(C)(C)O)NC(=O)[C@H](CC3CCCCC3)NC(=O)[C@H](CCN)NC(=O)[C@@H](CC(C)C)NC(=O)[C@H](CCCN)NC(=O)[C@H](Cc3ccc(OCC(=O)O)cc3)NC(=O)[C@H](Cc3ccc(-c4ccccc4)cc3)NC(=O)[C@H](Cc3ccc(OCC(=O)O)cc3)NC2=O)c1 [Compound 3750] ({CH2CO}-[4Pal][Phe(4-CONH2)]D[Phe(3-Me)]Y(Carboxymethyl)[Bip]Y(Carboxymethyl)[Orn][dL][Dab][Cha][Val(3-OH)]SC[Dab][AEEA][Aun]-OH; thioether N-14)	6.90
Cc1cccc(C[C@@H]2NC(=O)[C@H](CC(=O)O)NC(=O)[C@H](Cc3ccc(OCC(=O)O)cc3)NC(=O)[C@H](CCN)NC(=O)CSC[C@@H](C(=O)N[C@@H](CCN)C(=O)NCCOCCOCC(=O)NCCOCCOCC(=O)NCCCCCCCCCCC(=O)O)NC(=O)[C@H](CCC(=O)O)NC(=O)[C@H](C(C)(C)O)NC(=O)[C@H](CC3CCCCC3)NC(=O)[C@H](CCN)NC(=O)[C@@H](CC(C)C)NC(=O)[C@H](CCCN)NC(=O)[C@H](Cc3ccc(OCC(=O)O)cc3)NC(=O)[C@H](Cc3ccc(-c4ccccc4)cc3)NC(=O)[C@H](Cc3ccc(OCC(=O)O)cc3)NC2=O)c1 [Compound 3753] ({CH2CO}-[Dab]Y(Carboxymethyl)D[Phe(3-Me)]Y(Carboxymethyl)[Bip]Y(Carboxymethyl)[Orn][dL][Dab][Cha][Val(3-OH)]EC[Dab][AEEA][AEEA][Aun]-OH; thioether N-14)	8.22
Cc1cccc(C[C@@H]2NC(=O)[C@H](CC(=O)O)NC(=O)[C@H](Cc3ccc(OCC(=O)O)cc3)NC(=O)[C@H](Cc3ccncc3)NC(=O)CSC[C@@H](C(=O)N[C@@H](CCN)C(=O)NCCOCCOCC(=O)NCCOCCOCC(=O)NCCCCCCCCCCCCC(=O)O)NC(=O)[C@H](CCC(=O)O)NC(=O)[C@H](C(C)C)NC(=O)[C@H](CC3CCCCC3)NC(=O)[C@H](CCN)NC(=O)[C@@H](CC(C)C)NC(=O)[C@H](CCCN)NC(=O)[C@H](Cc3ccc(C(=O)O)cc3)NC(=O)[C@H](Cc3ccc(-c4ccccc4)cc3)NC(=O)[C@H](Cc3ccc(C(=O)O)cc3)NC2=O)c1 [Compound 3754] ({CH2CO}-[4Pal]Y(Carboxymethyl)D[Phe(3-Me)][Phe(4-COOH)][Bip][Phe(4-COOH)][Orn][dL][Dab][Cha]VEC[Dab][AEEA][AEEA]-{NH(CH2)12COOH}; thioether N-14)	6.60
